The term pKa denotes the pH at which an ionisable group is half protonated.

Where only a bound is given, the exact number is not on record here.

Here are results for nine compounds from ChEMBL document CHEMBL1149958, “Conformationally restricted piperidinyl benzamides as 5-HT3 receptor antagonists” (Bioorg Med Chem Lett, 1992).

The subject of series [1] is Rattus norvegicus. As to the kind of experiment: Antagonist potency towards serotonin 5-HT3 receptor was determined by inhibition of 5-HT induced bradycardia (Bezold-Jarisch reflex) in anaesthetized rat. The class given is functional. As to conditions: for ED50: Rattus norvegicus, read-out: ID50 (the source's name).
Series [2] is described as follows: pKA value was determined. Format: physicochemical.

For the compound `COc1cc(N)c(Cl)cc1C(=O)NC1CCN2CCCC2C1` (stereo in doubt; 4b), the ID50 in series [1] turned out to be 0.024 mg/kg.
Take `CCN(CC)CCNC(=O)c1cc(Cl)c(N)cc1OC` [METOCLOPRAMIDE]: the ED50 in series [1] turned out to be 0.5 mg/kg.
In turn, `COc1cc(N)c(Cl)cc1C(=O)NC1CCN2CCOCC2C1` (stereo unspecified) registered a pKa in series [2] of 6.3. Further, the ED50 in series [1] worked out at 0.017 mg/kg.
In the case of `COc1cc(N)c(Cl)cc1C(=O)NC1CCN2CCCC2C1` (stereo in doubt; 4a), the ID50 in series [1] is more than 1 mg/kg.
Regarding `COc1cc(N)c(Cl)cc1C(=O)NC1CCN2C(C)CCC2C1` (stereo unspecified), in series [1], the ED50 is 0.012 mg/kg.
Still for that read-out and setting: the value for `COc1cc(N)c(Cl)cc1C(=O)NC1CCN2C(C)COCC2C1` (stereo unspecified) was 0.0095 mg/kg.
In the case of `COc1cc(N)c(Cl)cc1C(=O)NC1CCN2C(C)CCCC2C1` (stereo unspecified) [BRL-20627], in series [2], the pKa is 9.2. Also, the ED50 in series [1] turned out to be 0.225 mg/kg.
Turning to `CN1[C@@H]2CC[C@H]1C[C@@H](OC(=O)c1c[nH]c3ccccc13)C2` [TROPISETRON], the ED50 in series [1] amounted to 0.0014 mg/kg.
On the same count and under the same terms, to `COc1cc(N)c(Cl)cc1C(=O)NC1CC(C)N2CCCC2C1` (stereo unspecified) belongs 0.29 mg/kg.
